Structures are written as SMILES. pEC50: −log10 of the molar value. Where only a bound is given, the exact number is not on record here.

This passage reports EC50 and CC50 results from ChEMBL document CHEMBL1156829 (Proc Natl Acad Sci U S A, 2008).

Data set [1] relates to Plasmodium falciparum. Description: NOVARTIS: Inhibition of Plasmodium falciparum W2 (drug-resistant) proliferation in erythrocyte-based infection assay. The data set is classed as functional, organism-based. As to conditions: Plasmodium falciparum, W2; read-out: EC50.
The test system of data set [2] is Plasmodium falciparum. Briefly: NOVARTIS: Inhibition of Plasmodium falciparum 3D7 (drug-susceptible) proliferation in erythrocyte-based infection assay. It is filed as functional, organism-based. As to conditions: Plasmodium falciparum, 3D7.
Data set [3] can be described thus: NOVARTIS: Cytotoxicity against human hepatocellular carcinoma cell line (Huh7). As to conditions: Huh7 cells (hepatocellular carcinoma cell line). The data set is classed as toxicity, cell-based, Huh-7.

As for `NC1(C(=O)O)CCc2cc(C(=O)O)ccc21` (configuration not stated), the results for the pEC50 with Plasmodium falciparum [1] and in the data set with Plasmodium falciparum [2] were 6.08 and less than 5.94, respectively. In addition, the CC50 in data set [3] is greater than 10000 nM.
For `O=[N+]([O-])c1ccc2nc(Nc3ccc(Cl)c(Cl)c3)c(Nc3ccc(Cl)c(Cl)c3)nc2c1`, in that order: 5.15, 5.14 and greater than 85400 nM.
For `Oc1ccc(-c2nc(-c3ccc4oc5ccc(-c6[nH]c(-c7ccc(O)cc7)nc6-c6ccccc6)cc5c4c3)c(-c3ccccc3)[nH]2)cc1`, in that order: 5.08, 5.48 and greater than 100000 nM.
As for `CC(C)c1ccc2c(c1)c1c3c([n+](C)ccn32)CCC1`, the pEC50 is 5.58 in the data set with Plasmodium falciparum [1] and 5.76 in the data set on Plasmodium falciparum [2]. Also, the CC50 in data set [3] stood at 31800 nM.
As to `CCc1cccc(NC(=O)CCCn2c(=O)c3cccn3c3ccccc32)c1`, the figures for the pEC50 with Plasmodium falciparum [1] and in the data set on Plasmodium falciparum [2] were 6.08 and less than 5.81, respectively. This molecule showed a CC50 in data set [3] greater than 10000 nM.
For `COC(=O)[C@@H]1C[C@@H](NC(=O)c2ccc(OC)cc2OC)CN1C/C(C)=C/c1ccccc1`, in that order: 6.09, 6.36 and greater than 10000 nM.
For `CCN(c1ccc(F)cc1)S(=O)(=O)c1ccc2[nH]cc(C(=O)NC(C)(C)C)c(=O)c2c1`, in that order: 6.08, less than 5.80 and greater than 10000 nM.
With `CC(=O)OC1CCC2(C)C(CCC3C2CCC2(C)C3CC(O)C2(O)C(C)=O)C1` (configuration not stated), the pEC50 is less than 6.08 in the data set with Plasmodium falciparum [1] and less than 5.90 in the data set with Plasmodium falciparum [2]. Also, in data set [3], the CC50 is greater than 10000 nM.
For `CCc1ccc(-n2c(C(CC)N(CCC(C)C)C(=O)Nc3ccc(Cl)c(Cl)c3)nc3ccccc3c2=O)cc1` (configuration not stated), in that order: less than 6.08, less than 5.90 and greater than 10000 nM.
For `Nc1nc(N)c2cc(S(=O)(=O)N3CCSCC3)ccc2n1`, in that order: less than 5.90, 6.93 and 15100 nM.
Regarding `COc1ccc(/C=C/C(=O)Nc2ccncc2)cc1OC`, the pEC50 with Plasmodium falciparum [1] was 6.08; in the data set with Plasmodium falciparum [2] it was 6.23. The same molecule gave a CC50 in data set [3] greater than 10000 nM.
On to `CCCCCC[P+](N(CCC)CCC)(N(CCC)CCC)N(CCC)CCC`, for which the pEC50 with Plasmodium falciparum [1] is 7.02; in the data set on Plasmodium falciparum [2], 7.15. This molecule came in with a CC50 in data set [3] of 1160 nM.
For `CCCCCN(C(=O)Nc1ccccc1OC)C(CC)c1nc2ccccc2c(=O)n1-c1ccccc1OC` (configuration not stated), in that order: 6.08, 6.11 and greater than 10000 nM.
Turning to `CCOc1ccc(NC(=O)c2ccc(I)o2)cc1`, the pEC50 was 5.24 with Plasmodium falciparum [1] and 5.31 in the data set with Plasmodium falciparum [2]. This molecule returned a CC50 in data set [3] of 69600 nM.
For `CC1CCN(C(=O)C(C)N(c2ccccc2)S(C)(=O)=O)CC1` (configuration not stated), in that order: 5.08, 5.14 and greater than 100000 nM.
For `CCOC(=O)C1=C(C)N(CCNc2ncc(C(F)(F)F)cc2Cl)C(=O)CC1`, in that order: 5.08, 5.12 and greater than 100000 nM.
For `COc1cc(NC(C)CCCN(Cc2ccc(OC)c(OC)c2)C(=O)CCC2CCCC2)c2ncccc2c1` (configuration not stated), in that order: 6.48, 6.16 and 3990 nM.
With `CCCCN(CCCC)[P+](N(CCCC)CCCC)(N(CCCC)CCCC)N(CCCC)CCCC`, the results for the pEC50 with Plasmodium falciparum [1] and with Plasmodium falciparum [2] were 7.18 and 6.65, respectively. The same molecule returned a CC50 in data set [3] of 784 nM.
For `CCOc1ccccc1-n1c(C(C)N(CCc2ccccc2)C(=O)c2ccc(Br)cc2)nc2ccccc2c1=O` (configuration not stated), in that order: 6.08, less than 5.90 and greater than 10000 nM.
For `CCCCc1ccc(C(=O)N(CC(=O)Nc2cc(C(C)(C)C)nn2-c2ccc(Cl)cc2)C(C)C)cc1`, in that order: less than 6.08, less than 5.86 and greater than 10000 nM.
For `CCc1ccc2c(c1)c1nnc(SCC(=O)NCCOC)nc1n2C`, in that order: less than 6.08, less than 5.90 and greater than 10000 nM.
Consider `CCc1nnc2n1N(C(C)=O)C(c1ccc(Cl)c(Cl)c1)=C(C(C)=O)S2`, for which the pEC50 with Plasmodium falciparum [1] was less than 6.08; in the data set with Plasmodium falciparum [2], less than 5.90. In data set [3], the CC50 was greater than 10000 nM.
For `CCCCCCN(C(=O)COCc1ccccc1)C(CC)c1nc2ccccc2c(=O)n1-c1ccc(F)c(Cl)c1` (configuration not stated), the pEC50 is 6.09 in the data set on Plasmodium falciparum [1] and 6.22 with Plasmodium falciparum [2]. For the same molecule, the CC50 in data set [3] is greater than 10000 nM.
As to `Cc1cnc(Sc2ccccn2)c([N+](=O)[O-])c1`, the pEC50 in the data set with Plasmodium falciparum [1] was 5.21; in the data set on Plasmodium falciparum [2], less than 4.90. The molecule further came in with a CC50 in data set [3] of 72900 nM.
As to `Nc1c(C(=O)c2ccc(Br)cc2)sc2nc(-c3cccnc3)ccc12`, the pEC50 with Plasmodium falciparum [1] was less than 5.96; with Plasmodium falciparum [2], 5.89. Further, the CC50 in data set [3] is greater than 13000 nM.
For `COc1ccccc1Cc1nc2ccccc2nc1SCC(=O)Nc1cccc(C(F)(F)F)c1`, in that order: less than 5.08, less than 5.26 and greater than 100000 nM.
For `COc1cc(NC(C)CCCN(Cc2ccccc2OC)C(=O)Nc2cccc(F)c2)c2ncccc2c1` (configuration not stated), in that order: 6.08, less than 5.78 and greater than 10000 nM.
Consider `Cn1nc(C(=O)N2CCCC2)c2c1CCC(NCc1cnc3ccccc3c1)C2` (configuration not stated), for which the pEC50 in the data set on Plasmodium falciparum [1] is less than 6.07; in the data set on Plasmodium falciparum [2], less than 5.90. The same molecule had a CC50 in data set [3] greater than 10000 nM.
For `C=CCNCc1cc(-c2cc(OC)ccc2OC)ccc1O`, in that order: 6.08, 5.96 and greater than 10000 nM.
For `CC1=NN(c2ccc(C(=O)O)cc2)C(=O)/C1=C\c1ccc([N+](=O)[O-])o1`, in that order: less than 6.08, less than 5.90 and greater than 10000 nM.
Turning to `O=C(NCCc1ccccc1)c1cnc(NCCCn2ccnc2)nc1Nc1ccccc1`, the pEC50 with Plasmodium falciparum [1] was 6.07; in the data set with Plasmodium falciparum [2] it was 6.26. This molecule had a CC50 in data set [3] greater than 10000 nM.
For `O=[N+]([O-])c1cccc(CNc2ccc(F)c(Cl)c2)c1`, in that order: 5.09, less than 4.90 and greater than 95600 nM.
For `CCOC(=O)c1ccc(NC(=O)CSc2nc(NCc3ccccc3)c3ccccc3n2)cc1`, in that order: less than 6.08, less than 5.94 and greater than 10000 nM.
For `Cc1ccc(C(=O)c2c(C)oc3ccc(O)cc23)cc1`, in that order: less than 6.08, less than 5.90 and greater than 10000 nM.
For `CCCCCCOC(=O)C1=C(C)NC(=O)NC1c1ccccc1F` (configuration not stated), the pEC50 with Plasmodium falciparum [1] was less than 5.08; with Plasmodium falciparum [2], less than 5.17. In data set [3], this molecule showed a CC50 greater than 100000 nM.
For `Cc1ccc(C)c(Nc2nc(NCC3CCCO3)c3ccccc3n2)c1` (configuration not stated), in that order: 5.81, 5.81 and 18600 nM.
In the case of `O=C(NNS(=O)(=O)c1ccccc1[N+](=O)[O-])c1ccccc1`, the pEC50 in the data set on Plasmodium falciparum [1] is less than 6.08; in the data set with Plasmodium falciparum [2], less than 5.90. The molecule also had a CC50 in data set [3] greater than 10000 nM.
With `Cc1nc(N)sc1C(=O)NN=Cc1cccc(Br)c1`, the pEC50 in the data set with Plasmodium falciparum [1] is 6.09; in the data set on Plasmodium falciparum [2], less than 5.90. The molecule further had a CC50 in data set [3] greater than 10000 nM.
For `CC1CC2=C(CC1CNCCCN(C)C)C(C)(C)CCC2` (configuration not stated), in that order: 6.07, 6.60 and greater than 10000 nM.
